Data published in patent US8003631B2, “Composition and method for the treatment of tauopathies” (Tautatis, Inc., priority 2004, dated 2011).

Legend:
[1] = tested on: PHF-type tau hyperphosphorylation; experiment: Titration of tau hyperphosphorylation inhibitors in okadaic acid-stimulated rat hippocampal brain slice model; format: cell-based; conditions: okadaic acid provocation of PHF-markers
Excerpt: Authentic PHF-type phosphorylation events virtually indistinguishable by all known molecular markers from what is seen in PHF-tau from human Alzheimer's disease brains is rapidly provoked in such brain slices by application of the phosphatase inhibitor okadaic acid (OA) [Gong et al., Brain Res. Brain Res. Protoc., 6, 134-140 (2001); WO 01/57535; WO 00/01699].
In okadaic acid-treated brain slices, most of the above pathological markers are modeled. For the detection of active inhibitor compounds, freshly prepared metabolically-active isolated slices, kept under constant oxygenation in a physiological buffer (artificial cerebrospinal fluid or Krebs-Ringer solution), are preincubated with a range of concentration of the compounds of general formula 1. The slices are then extracted with buffers stopping both kinase as well as phosphatase activities, and soluble supernatants of such tissue homogenates are then separated by SDS-PAGE and subjected to Western-blotting. […] The intensity of the signals can then be normalized to the amount of total tau in the sample by probing a sister blot with a phosphorylation insensitive tau antibody, followed by forming the intensity ratio of the respective phosphoepitope over total tau immunoreactivity which represent an accurate quantitative measure of the degree of phosphorylation defining a particular epitope. […]

[2] = cited from earlier work

SMILES | activity in the brain slice hyperphosphorylation model [1] | brain/plasma ratio ([2]; concentration in brain over concentration in plasma at a given time point) | maximal oral bioavailability ([2]; rats, oral) [%]
CCSCc1ccc2c(c1)c1c3c(c4c5cc(CSCC)ccc5n5c4c1n2[C@H]1C[C@](O)(C(=O)OC)[C@]5(C)O1)CNC3=O [CEP-1347] | inactive |  | 
COC(=O)[C@@]1(O)C[C@H]2O[C@]1(C)n1c3ccccc3c3c4c(c5c6ccccc6n2c5c31)C(=O)NC4 [K252a] |  | below 1 | 13
CN[C@@H]1C[C@H]2O[C@@](C)([C@@H]1OC)n1c3ccccc3c3c4c(c5c6ccccc6n2c5c31)C(=O)NC4 [staurosporine] | inactive |  | 
